Results published in US20260166128A1, “HUMAN AMYLIN ANALOG, AND DERIVATIVE THEREOF AND USE THEREOF” (priority 2022, published 2026).
Numbered stars: 1 amine (or outer) side, 2 acyl side, 3 side chain; on linkers, the order of the positions; unused ones are H or OH. Bridge positions count the residues as written; N and C are the ends. Square brackets hold non-standard residues; d marks the D form. Side chains are listed from the residue outwards. Peptide text beside a SMILES is read from it. * marks the point of attachment. C20 diacid = O=C(O)CCCCCCCCCCCCCCCCCCC(=O)*; C18 diacid = O=C(O)CCCCCCCCCCCCCCCCC(=O)*; γGlu = O=C(O)[C@H](CCC(=O)[*:2])N[*:1]; Hyp = O=C(O)[C@@H]1C[C@@H](O)CN1; Dab = NCC[C@H](N)C(=O)O; AEEA = NCCOCCOCC(=O)O

Tests used:
[1] = Freeze-thaw stability of derivatives (freeze-thaw yield by liquid chromatography); assay type: physicochemical; conditions: for Dissolution property: appearance after dissolution at 0.2 mg/ml in 20 mM phosphate buffer solution (PB) (pH 7.0); for Freeze storage property: appearance after overnight storage at −20° C. and thawing to room temperature, 0.2 mg/ml in 20 mM PB (pH 7.0); for Freeze storage yield: concentration of polypeptide after freezing and thawing / concentration before, by liquid chromatography, −20° C. overnight
In short: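 Lyophilised peptide derivative dissolved at 0.2 mg/ml in 20 mM phosphate buffer, pH 7.0, frozen overnight at −20° C, then thawed at room temperature. Peptide concentration before and after freeze-thaw measured by reversed-phase HPLC on centrifuged supernatant; yield = post-thaw/pre-thaw concentration.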

human amylin receptor = molecular target: T1, human amylin receptor (Homo sapiens, UniProt O60896+P30988); assay: Luciferase assay of amylin derivatives in amylin receptor/CRE-luc CHO cell line; assay type: cell-based; conditions: CHO-K1/Ga15/AMY3 CRE-luc cells, 24 hours incubation, F12 medium containing 10% FBS; read-out: EC50
T1 construct: host or cells: CHO-K1/Ga15/AMY3 cells, further stably transfected with a CRE-luciferase plasmid
T1 sequence (P30988 25-474): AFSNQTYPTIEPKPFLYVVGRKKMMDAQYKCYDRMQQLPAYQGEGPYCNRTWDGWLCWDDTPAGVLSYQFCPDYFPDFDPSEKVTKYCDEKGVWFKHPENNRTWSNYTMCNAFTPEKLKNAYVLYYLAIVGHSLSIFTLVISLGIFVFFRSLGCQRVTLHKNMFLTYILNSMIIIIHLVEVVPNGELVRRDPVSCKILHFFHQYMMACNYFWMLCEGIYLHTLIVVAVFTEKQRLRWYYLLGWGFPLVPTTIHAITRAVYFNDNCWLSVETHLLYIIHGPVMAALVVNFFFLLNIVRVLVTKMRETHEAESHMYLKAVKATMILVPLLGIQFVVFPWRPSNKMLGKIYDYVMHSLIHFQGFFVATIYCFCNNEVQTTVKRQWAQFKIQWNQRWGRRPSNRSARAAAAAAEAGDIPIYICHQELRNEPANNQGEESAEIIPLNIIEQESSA
T1 sequence (O60896 24-148 partner): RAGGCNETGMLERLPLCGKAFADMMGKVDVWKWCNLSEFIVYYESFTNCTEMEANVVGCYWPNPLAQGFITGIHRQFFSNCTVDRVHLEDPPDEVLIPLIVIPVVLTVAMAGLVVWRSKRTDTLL
Procedure: The experiment was intended to detect the activity or efficacy of the amylin derivatives on a human amylin receptor in vitro by luciferase assay.
50 μL of growth medium (F12 medium containing 10% FBS) was added into each well of a white 96-well plate, and the stably transfected amylin/CRE-lue CHO cells were inoculated into the white 96-well plate at a density of about 20,000 cells/well for activity determination.

Row | Dissolution property [1] | Freeze storage property [1] | Freeze storage yield [1] | EC50 (human amylin receptor) | Structure (SMILES)
1 | Clear | Clear | 84.90% | 2.62 nM | CC[C@H](C)[C@H](NC(=O)[C@@H]1CCCN1C(=O)[C@H](CCCCNC(=O)CC[C@H](NC(=O)CCCCCCCCCCCCCCCCCCC(=O)O)C(=O)O)NC(=O)[C@H](CC(C)C)NC(=O)[C@H](CC(N)=O)NC(=O)[C@H](CC(N)=O)NC(=O)[C@H](CO)NC(=O)[C@H](CO)NC(=O)[C@H](Cc1c[nH]cn1)NC(=O)[C@H](CCCNC(=N)N)NC(=O)[C@H](CC(C)C)NC(=O)[C@H](Cc1ccccc1)NC(=O)[C@H](CCN)NC(=O)[C@H](C)NC(=O)[C@H](CC(C)C)NC(=O)[C@H](CCCNC(=N)N)NC(=O)[C@H](CCC(N)=O)NC(=O)[C@@H](NC(=O)[C@H](C)NC(=O)[C@@H]1CSSC[C@H](NC(=O)[C@@H](N)CCCNC(=N)N)C(=O)N[C@@H](CC(N)=O)C(=O)N[C@@H]([C@@H](C)O)C(=O)N[C@@H](C)C(=O)N[C@@H]([C@@H](C)O)C(=O)N1)[C@@H](C)O)C(=O)N[C@@H](CC(C)C)C(=O)N1CCC[C@H]1C(=O)N1CCC[C@H]1C(=O)N[C@H](C(=O)N[C@@H](CC(N)=O)C(=O)N[C@H](C(=O)NCC(=O)N[C@@H](CO)C(=O)N[C@@H](CC(N)=O)C(=O)N[C@H](C(=O)N1CCC[C@H]1C(N)=O)[C@@H](C)O)C(C)C)[C@@H](C)O [PD044] (H-RCNTATCATQRLA[Dab]FLRHSSNNLK([γGlu-C20 diacid])PILPPTNVGSNTP-NH2; disulfide 2-7 (inferred))
2 | Clear | Clear | 120.04% | 0.013 nM | CC[C@H](C)[C@H](NC(=O)[C@@H]1CCCN1C(=O)CNC(=O)[C@H](CC(C)C)NC(=O)[C@H](CCCCNC(=O)CC[C@H](NC(=O)CCCCCCCCCCCCCCCCC(=O)O)C(=O)O)NC(=O)[C@H](CC(N)=O)NC(=O)[C@H](CO)NC(=O)[C@H](CO)NC(=O)[C@H](Cc1c[nH]cn1)NC(=O)[C@H](CCCNC(=N)N)NC(=O)[C@H](CC(C)C)NC(=O)[C@H](Cc1ccccc1)NC(=O)[C@H](CC(=O)O)NC(=O)[C@H](C)NC(=O)[C@H](CC(C)C)NC(=O)[C@H](CCCNC(=N)N)NC(=O)[C@H](CCC(N)=O)NC(=O)[C@@H](NC(=O)[C@H](C)NC(=O)[C@@H]1CSSC[C@H](NC(=O)[C@@H](N)CCCNC(=N)N)C(=O)N[C@@H](CC(N)=O)C(=O)N[C@@H]([C@@H](C)O)C(=O)N[C@@H](C)C(=O)N[C@@H]([C@@H](C)O)C(=O)N1)[C@@H](C)O)C(=O)N[C@@H](CC(C)C)C(=O)N1CCC[C@H]1C(=O)N1CCC[C@H]1C(=O)N[C@H](C(=O)N[C@@H](CC(N)=O)C(=O)N[C@H](C(=O)NCC(=O)N[C@@H](CO)C(=O)N[C@@H](CC(N)=O)C(=O)N[C@H](C(=O)N1C[C@H](O)C[C@H]1C(N)=O)[C@@H](C)O)C(C)C)[C@@H](C)O [PD088] (H-RCNTATCATQRLADFLRHSSNK([γGlu-C18 diacid])LGPILPPTNVGSNT[Hyp]-NH2; disulfide 2-7 (inferred); N-terminus assumed)

Continued, compound first:

Row | Structure (SMILES) | Dissolution property [1] | Freeze storage property [1] | Freeze storage yield [1] | EC50 (human amylin receptor)
3 | CC[C@H](C)[C@H](NC(=O)[C@H](CCCCNC(=O)COCCOCCNC(=O)COCCOCCNC(=O)CC[C@H](NC(=O)CCCCCCCCCCCCCCCCCCC(=O)O)C(=O)O)NC(=O)CNC(=O)[C@H](CC(C)C)NC(=O)[C@H](CC(N)=O)NC(=O)[C@H](CC(N)=O)NC(=O)[C@H](CO)NC(=O)[C@H](CO)NC(=O)[C@H](Cc1c[nH]cn1)NC(=O)[C@H](CCCNC(=N)N)NC(=O)[C@H](CC(C)C)NC(=O)[C@H](Cc1ccccc1)NC(=O)[C@H](CC(=O)O)NC(=O)[C@H](C)NC(=O)[C@H](CC(C)C)NC(=O)[C@H](CCCNC(=N)N)NC(=O)[C@H](CCC(N)=O)NC(=O)[C@@H](NC(=O)[C@H](C)NC(=O)[C@@H]1CSSC[C@H](NC(=O)[C@@H](N)CCCNC(=N)N)C(=O)N[C@@H](CC(N)=O)C(=O)N[C@@H]([C@@H](C)O)C(=O)N[C@@H](C)C(=O)N[C@@H]([C@@H](C)O)C(=O)N1)[C@@H](C)O)C(=O)N[C@@H](CC(C)C)C(=O)N1CCC[C@H]1C(=O)N1CCC[C@H]1C(=O)N[C@H](C(=O)N[C@@H](CC(N)=O)C(=O)N[C@H](C(=O)NCC(=O)N[C@@H](CO)C(=O)N[C@@H](CC(N)=O)C(=O)N[C@H](C(=O)N1C[C@H](O)C[C@H]1C(N)=O)[C@@H](C)O)C(C)C)[C@@H](C)O [PD103] (H-RCNTATCATQRLADFLRHSSNNLGK([AEEA-AEEA-γGlu-C20 diacid])ILPPTNVGSNT[Hyp]-NH2; disulfide 2-7 (inferred); N-terminus assumed) | Clear | Clear | 98.68% | 0.033 nM
4 | CC[C@H](C)[C@H](NC(=O)[C@@H]1CCCN1C(=O)CNC(=O)[C@H](CC(C)C)NC(=O)[C@H](CC(N)=O)NC(=O)[C@H](CCCCNC(=O)COCCOCCNC(=O)CC[C@H](NC(=O)CCCCCCCCCCCCCCCCCCC(=O)O)C(=O)O)NC(=O)[C@H](CO)NC(=O)[C@H](CO)NC(=O)[C@H](Cc1c[nH]cn1)NC(=O)[C@H](CCCNC(=N)N)NC(=O)[C@H](CC(C)C)NC(=O)[C@H](Cc1ccccc1)NC(=O)[C@H](CC(=O)O)NC(=O)[C@H](C)NC(=O)[C@H](CC(C)C)NC(=O)[C@H](CCCNC(=N)N)NC(=O)[C@H](CCC(N)=O)NC(=O)[C@@H](NC(=O)[C@H](C)NC(=O)[C@@H]1CSSC[C@H](NC(=O)[C@@H](N)CCCNC(=N)N)C(=O)N[C@@H](CC(N)=O)C(=O)N[C@@H]([C@@H](C)O)C(=O)N[C@@H](C)C(=O)N[C@@H]([C@@H](C)O)C(=O)N1)[C@@H](C)O)C(=O)N[C@@H](CC(C)C)C(=O)N1CCC[C@H]1C(=O)N1CCC[C@H]1C(=O)N[C@H](C(=O)N[C@@H](CC(N)=O)C(=O)N[C@H](C(=O)NCC(=O)N[C@@H](CO)C(=O)N[C@@H](CC(N)=O)C(=O)N[C@H](C(=O)N1C[C@H](O)C[C@H]1C(N)=O)[C@@H](C)O)C(C)C)[C@@H](C)O [PD114] (H-RCNTATCATQRLADFLRHSSK([AEEA-γGlu-C20 diacid])NLGPILPPTNVGSNT[Hyp]-NH2; disulfide 2-7 (inferred); N-terminus assumed) | Clear | Clear | 101.02% | 0.029 nM
5 | CC[C@H](C)[C@H](NC(=O)[C@@H]1CCCN1C(=O)[C@H](CCCCNC(=O)CC[C@H](NC(=O)CCCCCCCCCCCCCCCCCCC(=O)O)C(=O)O)NC(=O)[C@H](CC(C)C)NC(=O)[C@H](CC(N)=O)NC(=O)[C@H](CC(N)=O)NC(=O)[C@H](CO)NC(=O)[C@H](CO)NC(=O)[C@H](Cc1c[nH]cn1)NC(=O)[C@H](CCCNC(=N)N)NC(=O)[C@H](CC(C)C)NC(=O)[C@H](Cc1ccccc1)NC(=O)[C@H](CCC(=O)O)NC(=O)[C@H](C)NC(=O)[C@H](CC(C)C)NC(=O)[C@H](CCCNC(=N)N)NC(=O)[C@H](CCC(N)=O)NC(=O)[C@@H](NC(=O)[C@H](C)NC(=O)[C@@H]1CSSC[C@H](N)C(=O)N[C@@H](CC(N)=O)C(=O)N[C@@H]([C@@H](C)O)C(=O)N[C@@H](C)C(=O)N[C@@H]([C@@H](C)O)C(=O)N1)[C@@H](C)O)C(=O)N[C@@H](CC(C)C)C(=O)N1CCC[C@H]1C(=O)N1CCC[C@H]1C(=O)N[C@H](C(=O)N[C@@H](CC(N)=O)C(=O)N[C@H](C(=O)NCC(=O)N[C@@H](CO)C(=O)N[C@@H](CC(N)=O)C(=O)N[C@H](C(=O)N1CCC[C@H]1C(N)=O)[C@@H](C)O)C(C)C)[C@@H](C)O [PD049] (H-CNTATCATQRLAEFLRHSSNNLK([γGlu-C20 diacid])PILPPTNVGSNTP-NH2; disulfide 1-6 (inferred); N-terminus assumed) | Clear | Clear | 99.00% | 0.215 nM
6 | CC[C@H](C)[C@H](NC(=O)[C@@H]1CCCN1C(=O)CNC(=O)[C@H](CCCCNC(=O)COCCOCCNC(=O)COCCOCCNC(=O)CC[C@H](NC(=O)CCCCCCCCCCCCCCCCCCC(=O)O)C(=O)O)NC(=O)[C@H](CC(N)=O)NC(=O)[C@H](CC(N)=O)NC(=O)[C@H](CO)NC(=O)[C@H](CO)NC(=O)[C@H](Cc1c[nH]cn1)NC(=O)[C@H](CCCNC(=N)N)NC(=O)[C@H](CC(C)C)NC(=O)[C@H](Cc1ccccc1)NC(=O)[C@H](CCC(=O)O)NC(=O)[C@H](C)NC(=O)[C@H](CC(C)C)NC(=O)[C@H](CCCNC(=N)N)NC(=O)[C@H](CCC(N)=O)NC(=O)[C@@H](NC(=O)[C@H](C)NC(=O)[C@@H]1CSSC[C@H](NC(=O)[C@@H](N)CCCNC(=N)N)C(=O)N[C@@H](CC(N)=O)C(=O)N[C@@H]([C@@H](C)O)C(=O)N[C@@H](C)C(=O)N[C@@H]([C@@H](C)O)C(=O)N1)[C@@H](C)O)C(=O)N[C@@H](CC(C)C)C(=O)N1CCC[C@H]1C(=O)N1CCC[C@H]1C(=O)N[C@H](C(=O)N[C@@H](CC(N)=O)C(=O)N[C@H](C(=O)NCC(=O)N[C@@H](CO)C(=O)N[C@@H](CC(N)=O)C(=O)N[C@H](C(=O)N1CCC[C@H]1C(N)=O)[C@@H](C)O)C(C)C)[C@@H](C)O [PD003] (H-RCNTATCATQRLAEFLRHSSNNK([AEEA-AEEA-γGlu-C20 diacid])GPILPPTNVGSNTP-NH2; disulfide 2-7 (inferred); N-terminus assumed) | Clear | Clear |  | 0.14 nM
